Measurements as given in US4243678A, “Acylhydrocarbylaminoalkanoic acids, compositions and uses” (Byk Gulden Lomberg Chemische Fabrik GmbH, priority 1977, dated 1981).
Read-outs that look alike come from different tables or passages of the source.

Assays:
[1] = Determination of toxicity (lethal action on the mouse after intraperitoneal application); format: in vivo; details: in vivo, ip
Method: The toxicity investigations are carried out on female NMRI mice (body weight 22 to 26 g). The animals (5 animals per dose) are given food and water ad lib. Different doses of the substances are administered intraperitoneally. The duration of observation is 14 days. The LD50, i.e. the dose at which 50% of the animals die, is determined graphically from the dose/effect curve.

pancreatic secretion = assay: Influence on pancreatic secretion of the narcotized rat; format: in vivo, rat (male Sprague-Dawley); details: 0.5 h
Description: (§1) Male Sprague-Dawley rats (body weight from 250 to 300 g) are narcotized with 1.2 g/kg urethane i.m. Then the abdominal cavity is opened medially, the bile duct is ligatured shortly above the place where it leads into the duodenum and also near to the hepatic duct, and both sections are catheterized towards the liver.
(§2) As in the rat all the pancreatic ducts lead out into the central section of the bile duct; it is possible in this way to discharge the pancreatic secretion separately from the distal (ligatured) section and the bile separately from the proximal section of the bile duct.
(§3) The quantities of pancreatic juice and bile juice obtained are measured at intervals of 30 minutes over a period from 2 hours before to 3 hours after the intraduodenal (V. jugularis externa) administration of the compounds to be tested (quantity of liquid administered 5 ml/kg).
(§4) The body temperature of the animals is maintained at 36° to 38° C. by means of electric blankets and radiation; the temperature is monitored rectally.
(§5) The liquid volumes of the 30-minute fractions after the administration of the substance are related in each case to the quantity of bile or pancreatic juice secreted prior to the application of the substance (=100%, mean of the last two measurements). The maximum percentage increase in the pancreatic or bile secretion is represented in dependence upon dose, and from this the ED50 is determined by interpolation.

[2] = as above; format: in vivo, rat (male Sprague-Dawley); details: in vivo, LD50 mouse i.p. / ED50 rat i.d.
Description: as §1, §2, §3, §4, §5

liver damage by CCl4 = assay: Antihepatotoxic effect: duration of hexobarbital sleep of the rat after liver damage by CCl4; details: Rattus norvegicus, po; for ED25: read-out: ED25 antihepatotoxic effect (shortens hexobarbital narcosis by 25%)
Method: (§6) The compounds to be tested are administered 1 hour prior to the administration of CCl4 orally in a liquid volume of 10 ml/kg.
(§7) The antihepatotoxic effect of the compounds to be tested (sodium salts in aqueous solution) is determined by the reduction of the prolongation of sleeping period caused by the CCl4 liver cell damage in the groups treated, as compared with the prolongation of the sleeping period of the CCl4 control group (=100%). […]

[3] = as above; details: rat, in vivo
Method: as §6, §7

bile secretion = assay: Influence on bile secretion (choleresis) of the narcotized rat; format: in vivo, rat (male Sprague-Dawley); details: 0.5 h, liquid volume
Description: as §1, §2, §3, §4, §5

[4] = as above; format: in vivo, rat (male Sprague-Dawley); details: in vivo, LD50 mouse i.p. / ED50 rat i.d.
Description: as §1, §2, §3, §4, §5

stomach ulcer = assay: Antiulcerogenic (stomach-protective) action, pylorus ligature and acetylsalicylic acid; format: in vivo, rat (female); details: 4 h; rat, intraduodenally; Table IV; read-out: ED50 antiulcerogenic action (dose which reduces the mean ulcer index by 50%)
Method: (§8) The ulcer provocation is carried out on rats which have been made to fast for 24 hours (female, 180 to 200 g) by ligature of the pylorus (under ether narcosis) and the oral application of 100 mg/10 ml/kg acetylsalicylic acid. The administration of the substances was carried out intraduodenally (2.5 ml/kg) immediately after the ligature of the pylorus. The closure of the wound was carried out by means of Michel clamps. 4 hours after this, the animals were autopsied (while inebriated with ether) by dislocation of the atlas, and the stomach was resected. The stomach, opened longitudinally, is fixed on a cork board and, using a stereomicroscope with an enlargement of 10×, the number and size (=diameter) of any ulcers present were determined. The product of the degree of severity (according to the following scale of points) and the number of ulcers was used as the individual ulcer index.
(§9) As a measure of antiulcerogenic effect the reduction in the mean ulcer index of each treated group, as compared with that of the control group (=100%), was used.

[5] = as above; format: in vivo, rat (female); details: in vivo; LD50 mouse i.p. / ED50 rat i.d.; Table IV; read-out: TQ (LD50/ED50), antiulcerogenic action
Method: as §8, §9

[6] = Rattus norvegicus, read-out: ED50 pancreatic secretion (dose which brings about an increase in the pancreatic secretion by a maximum of 50%)
[7] = Table I, read-out: TQ (LD50/ED50), pancreatic secretion
[8] = read-out: ED50 antihepatotoxic effect (dose which shortens the hexobarbital narcosis by 50%)
[9] = TQ (LD50/ED50), antihepatotoxic effect, LD50 mouse i.p. / ED50 rat p.o., Table III
[10] = narcotized rat, i.d., 30 min fraction, Table II, read-out: ED50 bile secretion (dose which brings about an increase in the bile secretion by a maximum of 50%)
[11] = Table II, read-out: TQ (LD50/ED50), bile secretion
[12] = narcotized rat, i.d., liquid volume, 30 min fraction, Table VII, read-out: ED50 pancreatic secretion (dose which brings about an increase in pancreatic secretion of a maximum of 50%)
[13] = Table VII, read-out: TQ [LD50/ED50], pancreatic secretion
[14] = read-out: ED50 antihepatotoxic effect (shortens hexobarbital narcosis by 50%)
[15] = TQ LD50/ED25, antihepatotoxic effect, LD50 mouse i.p. / ED25 rat p.o., Table V
[16] = TQ LD50/ED50, antihepatotoxic effect, LD50 mouse i.p. / ED50 rat p.o., Table V
[17] = narcotized rat i.d., 30 min fraction, Table VI, read-out: ED50 bile secretion (dose which brings about an increase in the bile secretion by a maximum of 50%)
[18] = Table VI, read-out: TQ (LD50/ED50), bile secretion

**Q.** With `CC(c1ccccc1)N(CCCC(=O)O)C(=O)c1ccc(Cl)cc1` (racemic) [Serial No. 10, N-(p-chloro)benzoyl-4-(1-phenylethylamino)butyric acid] as the compound, how does the LD50 at 336 h ([1]; mouse, Table I) read?
**A.** 1200 mg/kg

**Q.** What about the ED50 (pancreatic secretion; [6]) of the same compound?
**A.** ~20 mg/kg

**Q.** What about the selectivity ratio [2, 7] of the same compound?
**A.** ~60

**Q.** And the ED50 (liver damage by CCl4; [8])?
**A.** ~10 mg/kg

**Q.** What about the selectivity ratio [3, 9] of the same compound?
**A.** ~120

**Q.** What about the ED50 (bile secretion; [10]) of the same compound?
**A.** ~15 mg/kg

**Q.** What about the selectivity ratio [4, 11] of the same compound?
**A.** ~80

**Q.** Which results are given for `CC(C)(C)N(CCCC(=O)O)C(=O)c1ccc(Cl)cc1` [Serial No. 2, N-(p-chloro)benzoyl-4-(tert.-butylamino)butyric acid]?
**A.** LD50 at 336 h ([1]; mouse, Table II): 850 mg/kg; ED50 (bile secretion; [10]): 15 mg/kg; selectivity ratio [4, 11]: 57

**Q.** What does the source list for `C#CC(CC)(CC)N(CCCC(=O)O)C(=O)c1ccc(Cl)cc1` [Serial No. 4, N-(p-chloro)benzoyl-4-[(3-ethyl-1-pentyn-3-yl)amino]butyric acid]?
**A.** LD50 at 336 h ([1]; mouse, Table II): 200 mg/kg; ED50 (bile secretion; [10]): ~5 mg/kg; selectivity ratio [4, 11]: ~40

**Q.** Which results are given for `C#CC1(N(CCCC(=O)O)C(=O)c2ccc(Cl)cc2)CCCCC1` [Serial No. 5, N-(p-chloro)benzoyl-4-[(1-ethynylcyclohexyl-1)-amino]butyric acid]?
**A.** LD50 at 336 h ([1]; mouse, Table I): 190 mg/kg; ED50 (pancreatic secretion; [6]): 2 mg/kg; selectivity ratio [2, 7]: 95; ED50 (bile secretion; [10]): 6 mg/kg; selectivity ratio [4, 11]: 32

**Q.** Which LD50 at 336 h ([1]; mouse, Table I) does the source give for `COc1ccc(CCN(CCCC(=O)O)C(=O)c2ccc(Cl)cc2)cc1OC` [Serial No. 9, N-(p-chloro)benzoyl-4-homoveratrylaminobutyric acid] here?
**A.** 780 mg/kg

**Q.** What about the ED50 (pancreatic secretion; [6]) of the same compound?
**A.** 5 mg/kg

**Q.** And the selectivity ratio [2, 7]?
**A.** 156

**Q.** And the ED50 (liver damage by CCl4; [8])?
**A.** 100 mg/kg

**Q.** And the selectivity ratio [3, 9]?
**A.** 7.8

**Q.** And the ED50 (bile secretion; [10])?
**A.** 18 mg/kg

**Q.** And the selectivity ratio [4, 11]?
**A.** 43

**Q.** Which LD50 at 336 h ([1]; mouse, Table II) does the source give for `CCC(C)(C)N(CCCC(=O)O)C(=O)c1ccc(Cl)cc1Cl` [Serial No. 11, N-(2,4-dichloro)benzoyl-4-[(1,1-dimethylpropyl)amino]butyric acid] here?
**A.** 190 mg/kg

**Q.** And the ED50 (bile secretion; [10])?
**A.** 6 mg/kg

**Q.** And the selectivity ratio [4, 11]?
**A.** 32

**Q.** What does the source list for `CC(=O)N(CCCC(=O)O)C(c1ccccc1)c1ccccc1` [Serial No. 14, N-acetyl-4-benzhydrylaminobutyric acid]?
**A.** LD50 at 336 h ([1]; mouse, Table I): 1100 mg/kg; ED50 (pancreatic secretion; [6]): ~5 mg/kg; selectivity ratio [2, 7]: ~220; ED50 (liver damage by CCl4; [8]): 10 mg/kg; selectivity ratio [3, 9]: 110; ED50 (bile secretion; [10]): 5 mg/kg; selectivity ratio [4, 11]: 220

**Q.** With `CC(C)(C)CC(C)(C)N(CCCC(=O)O)C(=O)c1ccc(F)cc1` [Serial No. 16, N-(p-fluoro)benzoyl-4-(1,1,3,3-tetramethylbutyl)aminobutyric acid] as the compound, how does the LD50 at 336 h ([1]; mouse, Table I) read?
**A.** 400 mg/kg

**Q.** What about the ED50 (pancreatic secretion; [6]) of the same compound?
**A.** ~10 mg/kg

**Q.** And the selectivity ratio [2, 7]?
**A.** ~40

**Q.** What about the ED50 (bile secretion; [10]) of the same compound?
**A.** 7 mg/kg

**Q.** What about the selectivity ratio [4, 11] of the same compound?
**A.** 57

**Q.** For `O=C(O)CCCN(C(=O)c1ccc(Cl)cc1)C(Cc1ccccc1)c1ccccc1` (stereo not shown) [Serial No. 17, N-(p-chloro)benzoyl-4-[(1,2-diphenylethyl)amino]butyric acid], which LD50 at 336 h ([1]; mouse, Table I) is on record?
**A.** 160 mg/kg

**Q.** And the ED50 (pancreatic secretion; [6])?
**A.** ~1 mg/kg

**Q.** And the selectivity ratio [2, 7]?
**A.** ~160

**Q.** And the ED50 (liver damage by CCl4; [8])?
**A.** 10 mg/kg

**Q.** And the selectivity ratio [3, 9]?
**A.** 16

**Q.** And the ED50 (bile secretion; [10])?
**A.** 5 mg/kg

**Q.** And the selectivity ratio [4, 11]?
**A.** 32

**Q.** What does the source list for `CC(=O)N(CCCC(=O)O)c1ccccc1-c1ccccc1` [Serial No. 22, 4-[N-(biphenyl-2-yl)acetamido]butyric acid]?
**A.** LD50 at 336 h ([1]; mouse, Table IV): 750 mg/kg; ED50 (pancreatic secretion; [12]): ~2 mg/kg; selectivity ratio [2, 13]: ~375; ED25 (liver damage by CCl4): < 3 mg/kg; ED50 (liver damage by CCl4; [14]): 15 mg/kg; selectivity ratio [3, 15]: > 250; selectivity ratio [3, 16]: 50; ED50 (stomach ulcer): 55 mg/kg; selectivity ratio [5]: 13.6; ED50 (bile secretion; [17]): 8 mg/kg; selectivity ratio [4, 18]: 93.8

**Q.** Which results are given for `CC=CC(=O)N(CCCC(=O)O)c1ccccc1-c1ccccc1` [Serial No. 27, 4-[N-(biphenyl-2-yl)crotonoylamido]butyric acid]?
**A.** LD50 at 336 h ([1]; mouse, Table IV): 300 mg/kg; ED25 (liver damage by CCl4): 1.6 mg/kg; ED50 (liver damage by CCl4; [14]): 2.8 mg/kg; selectivity ratio [3, 15]: 188; selectivity ratio [3, 16]: 107; ED50 (stomach ulcer): ~55 mg/kg; selectivity ratio [5]: ~5.5; ED50 (bile secretion; [17]): 10 mg/kg; selectivity ratio [4, 18]: 30

**Q.** For `COc1ccc(Cl)cc1C(=O)N(CCCC(=O)O)c1ccc(OC)c(-c2ccccc2)c1` [Serial No. 36, 4-[2-methoxy-5-chloro-N-(6-methoxybiphenyl-3-yl)benzamido]butyric acid], which LD50 at 336 h ([1]; mouse i.p., Table VI) is on record?
**A.** 190 mg/kg

**Q.** And the ED50 (pancreatic secretion; [12])?
**A.** 5 mg/kg

**Q.** And the selectivity ratio [2, 13]?
**A.** 38

**Q.** What about the ED50 (bile secretion; [17]) of the same compound?
**A.** 1 mg/kg

**Q.** And the selectivity ratio [4, 18]?
**A.** 190

**Q.** Which LD50 at 336 h ([1]; mouse i.p., Table XI) does the source give for `COc1cc(C(=O)N(CCCC(=O)O)c2cccc3ccccc23)cc(OC)c1OC` [Serial No. 40, 4-{3,4,5-trimethoxy-[N-(α-naphthyl)]benzamido}butyric acid] here?
**A.** 360 mg/kg

**Q.** What about the ED25 (liver damage by CCl4) of the same compound?
**A.** 17 mg/kg

**Q.** And the ED50 (liver damage by CCl4; [14])?
**A.** ≥ 30 mg/kg

**Q.** What about the selectivity ratio ([3]; TQ LD50/ED25, antihepatotoxic effect, LD50 mouse i.p. / ED25 rat p.o., Table XI) of the same compound?
**A.** 21.2

**Q.** What about the selectivity ratio ([3]; TQ LD50/ED50, antihepatotoxic effect, LD50 mouse i.p. / ED50 rat p.o., Table XI) of the same compound?
**A.** ≤ 12

**Q.** What about the ED50 (bile secretion; narcotized rat i.d., 30 minute fraction, Table XII, read-out: ED50 bile secretion (dose which brings about an increase in bile secretion by a maximum of 50%)) of the same compound?
**A.** 8 mg/kg

**Q.** What about the selectivity ratio ([4]; Table XII, read-out: TQ LD50/ED50, bile secretion) of the same compound?
**A.** 45
